“And” between values parts separate entries of the source, which are not always exact repeats. Identical values can stand only once. Like-named read-outs stand apart in the source and are kept apart here.
How the values were obtained:
DUBs in HEK293 lysate = assay: Activity-based protein profiling in the lysate with Ub-VS competition; assay type: binding, human; details: 1 µM, 1 h
Description: Cells (4 × 10^6) were seeded in 10 cm dishes and grown to 90% confluency. The medium was aspirated, cells were washed with ice-cold PBS, treated with 600 µL ABP lysis buffer (1% (v/v) IGEPAL, 50 mM Tris, 150 mM NaCl, 5% glycerol, pH 8, cOmplete protease inhibitor cocktail), and incubated on ice for 15 min. The lysed cells were scrapped off the dish, cleared by centrifugation, and the protein concentration was determined via a Bradford assay. […] Each compound was diluted to a 2x concentration in PBS buffer from a 10 mM stock in DMSO (final concentration: 1 µM). Then each compound dilution or a DMSO dilution was mixed with cell lysate and incubated for one hour at room temperature. […] Samples were resolved by SDS-PAGE using a 4–12% Bis-Tris gel (Invitrogen, NuPAGE) with MES SDS running buffer for 50 min at 180 V. Fluorescence was read out using the Alexa564 (λex/em 520–545/577–613 nm, for TAMRA) and Alexa680 (λex/em 650–675/700–730 nm, for the PageRuler Prestained NIR Protein Ladder (Thermo Scientific)) channels on a ChemiDoc MP Imaging System (Bio-Rad).

UCHL1 [1] = molecular target: T1, UCHL1 (Homo sapiens, UniProt P09936); assay: Ub-Rhodamine (Ubiquitin rhodamine cleavage) assay; assay type: biochemical; details: 1 h preincubation
T1 sequence (P09936 1-223): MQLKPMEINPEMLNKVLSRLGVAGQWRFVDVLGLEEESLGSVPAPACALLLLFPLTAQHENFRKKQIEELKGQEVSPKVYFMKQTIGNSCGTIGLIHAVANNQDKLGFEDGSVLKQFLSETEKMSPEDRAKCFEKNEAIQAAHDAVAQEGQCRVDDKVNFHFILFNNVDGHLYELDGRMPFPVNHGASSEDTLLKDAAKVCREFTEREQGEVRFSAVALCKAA

UCHL1 in HEK293 cells = system: T2, UCHL1 in HEK293 cells; assay: Cellular Ub-probe (HA-Ub-VS) competition, inhibition of cellular UCHL1; assay type: cell-based, human
T2 construct: Western blot analysis of endogenous UCHL1 labeled with HA-Ub-VS after treatment of HEK293 cells; endogenous in cells; host or cells: HEK293
Description: Proteins were transferred to a polyvinylidene fluoride (PVDF, only experiments in Fig. 4e and Supplementary Fig. 7e, f) or nitrocellulose (all other experiments) membrane using a Trans-Blot Turbo system (Bio-Rad, 1.3 A, 25 V, 10 min). The membranes were blocked with 5% (m/v) nonfat milk in PBS-T buffer and incubated with indicated primary antibodies (anti-UCHL1, 1:1000, Cell Signaling, D3T2E; anti-PARK7, 1:1000, Cell Signaling, D29E5; anti-Tubulin, 1:4000, Sigma, T6199; anti-Hemagglutinin, 1:1000, BioLegend, 16B12; anti-flag, 1:2000, Sigma, F3165; anti-Ubiquitin, 1:1000, Cell Signaling, P4D1; anti-Ubiquitin, 1:300, Santa Cruz, P4D1, sc-8017; anti-UCHL3, 1:1000, Proteintech, 12384-1-AP) overnight. Then the membranes were incubated with the respective secondary antibody (anti-mouse,1:5000, Sigma, NXA931; anti-rabbit, 1:5000, Sigma, GENA934) coupled to horseradish peroxidase. The chemiluminescent reaction was initiated using a Clarity Western ECL substrate (Bio-Rad) and images were taken on a ChemiDoc MP Imaging System (Bio-Rad).
The total protein concentration was adjusted to 2 mg/ml by diluting each sample with ABP lysis buffer. A final concentration of 1 µM HA-Ub-VS probe was added, followed by incubation for 30 min at 37 °C. The labeling reaction was quenched by the addition of 4x LDS sample buffer. The samples were separated via SDS-PAGE and further analyzed via western blotting as described above.

UCHL1 [2] = molecular target: T1, UCHL1; assay: Thermal shift assay; assay type: binding; details: UCHL1 1 µM, 1 h, replicates
Description: Reactions were performed in white 96-well PCR plates (Bio-Rad). UCHL1 was diluted in thermal shift buffer (1x PBS, 5 mM DTT) to a 4x concentration of 4 µM. The protein was then mixed with 4x compound dissolved in thermal shift buffer in a 1:1 ratio. To each well was added 20 µL of DUB-Inhibitor solution, followed by 1 h incubation time. To each well was then added 20 µL 4x SYPRO Orange in thermal shift buffer. After sealing the plates with a transparent film, thermal denaturation (gradient: 20–90 °C; Increment: 0.3 °C, hold for 5 s before read) was performed and monitored by a Bio-Rad Connect cycler.

Structure (SMILES): C#CCCC(=O)NCc1ccc(-c2cccc(Oc3ccnc(C#N)n3)c2)cc1 [CG017]
- DUB engagement (Ub-VS competitive labeling) (DUBs in HEK293 lysate): did not show any covalent-irreversibly bound proteins at all

Structure (SMILES): C#CCCC(=O)Nc1cccc(/C=C/c2ccc3c(C#N)c(N)[nH]c3c2)c1 [CG041]
- DUB engagement (Ub-VS competitive labeling) (DUBs in HEK293 lysate): did not show any covalent-irreversibly bound proteins at all

Structure (SMILES): C#CCn1cc(-c2ccc(C(=O)N[C@@H]3CCN(C#N)C3)c(F)c2)cn1 [CG50R]
- DUB engagement (Ub-VS competitive labeling) (DUBs in HEK293 lysate): did not show DUB engagement

Structure (SMILES): N#CN1CCC[C@H]1C(=O)N1CCc2c(-c3ccnc4[nH]ccc34)cccc21 [Cpd117, reference compound]
- IC50 (UCHL1 [1]; mean ± SD of independent experiments, read-out: IC50 (UCHL1)): 9 ± 3 nM
- inhibition of cellular UCHL1 (UCHL1 in HEK293 cells; after 1 h (Supplementary Fig. 5f)): very low degree of inhibition
- inhibition of cellular UCHL1 (UCHL1 in HEK293 cells; after 24 h incubation (Supplementary Fig. 5f)): no inhibition of cellular UCHL1 at all

Structure (SMILES): COCCNC(=O)c1ccc(-n2cnc(NC(=O)[C@H]3CCN(C#N)C3)c2)cc1 [Cpd158, reference compound]
- melting temperature (Tm) of UCHL1 (UCHL1 [2]; compound 1.25 µM): 59.4
- melting temperature (Tm) of UCHL1 (UCHL1 [2]; compound 2.5 µM): 59.4
- melting temperature (Tm) of UCHL1 (UCHL1 [2]; compound 5 µM): 59.1 and 59.4
- remaining activity at 0.000610352 µM (UCHL1 [1]; compound 0.610352 nM, read-out: UCHL1 activity, data point mean): 96.9%
- remaining activity at 0.0012207 µM (UCHL1 [1]; compound 1.2207 nM, read-out: UCHL1 activity, data point mean): 97.3%
- remaining activity at 0.00244141 µM (UCHL1 [1]; compound 2.44141 nM, read-out: UCHL1 activity, data point mean): 95.8%
- remaining activity at 0.00488281 µM (UCHL1 [1]; compound 4.88281 nM, read-out: UCHL1 activity, data point mean): 91.1%
- remaining activity at 0.00976562 µM (UCHL1 [1]; compound 9.76562 nM, read-out: UCHL1 activity, data point mean): 90.7%
- remaining activity at 0.0195312 µM (UCHL1 [1]; compound 19.5312 nM, read-out: UCHL1 activity, data point mean): 86.9%
- remaining activity at 0.0390625 µM (UCHL1 [1]; compound 39.0625 nM, read-out: UCHL1 activity, data point mean): 82%
- remaining activity at 0.078125 µM (UCHL1 [1]; compound 78.125 nM, read-out: UCHL1 activity, data point mean): 76.7%
- remaining activity at 0.15625 µM (UCHL1 [1]; compound 156.25 nM, read-out: UCHL1 activity, data point mean): 62.5%
- remaining activity at 0.3125 µM (UCHL1 [1]; compound 312.5 nM, read-out: UCHL1 activity, data point mean): 34.6%
- remaining activity at 0.625 µM (UCHL1 [1]; compound 625 nM, read-out: UCHL1 activity, data point mean): 14.3%
- remaining activity at 1.25 µM (UCHL1 [1]; compound 1250 nM, read-out: UCHL1 activity, data point mean): 4.23%
- remaining activity at 2.5 µM (UCHL1 [1]; compound 2500 nM, read-out: UCHL1 activity, data point mean): 2.34%
- remaining activity at 5 µM (UCHL1 [1]; compound 5000 nM, read-out: UCHL1 activity, data point mean): 1.97%
- remaining activity at 10 µM (UCHL1 [1]; compound 10000 nM, read-out: UCHL1 activity, data point mean): 1.42%
- IC50 (UCHL1 [1]; source data Fig. 3b, read-out: Averaged IC50s from independent experiments (single experiments)): 222 nM and 36 nM and 129 nM and 153 nM and 104 nM
- inhibition of cellular UCHL1 (UCHL1 in HEK293 cells; HEK293 cells, 1 and 5 µM, 1 h and 24 h (Supplementary Fig. 5f)): time- and concentration-dependent inhibition
